Test results reported in patent US20210205389A1, “METHODS AND COMPOSITIONS FOR TREATING NON-SMALL CELL LUNG CANCER” (Chang Gung Medical Foundation Keelung Chang Gung Memorial …, priority 2015, published 2021).

How the values were obtained:
HUVEC cells = test: Tube formation assay; assay type: cell-based; settings: sorafenib 10 μM (positive control)
Method: Tube formation assay was used to test the inhibitory effect of Composition 3 (400 and 600 μg/ml) in HUVEC cells. Treatment of sorafenib was used as a positive control. […] All samples were assayed in triplicate. Four images were taken per well of a 96-well plate at 10×. The data were quantitated by calculating the pentagonal ring or hexagonal ring loop numbers of each well and used solvent control (DMSO) as 100%.
In addition to the study of the immune modulator role of Composition 3, whether Composition 3 might affect angiogenesis was also studied. To investigate the anti-angiogenesis ability of Composition 3, the effect of Composition 3 on HUVEC cells tube formation was first tested. In the normal condition, HUVEC cells will arrange into pentagon or hexagon shape in matrigel to form a tube.

[1] = tested on: CL97 (gefitinib resistance cell line) xenograft; test: CL97 xenograft tumor study; assay type: in vivo, NOD/SCID mice; settings: oral; Gefitinib 100 mg/kg 2 times/week; C1 1 g/kg, C2 600 mg/kg, C3 150 mg/kg 5 days/week; 10 weeks
Method: Human lung cancer cell line CL97 (obtained from Dr. Pan-Chyr Yang's lab, 1 million cells/injection) were subcutaneously injected into the right flank of NOD/SCID mice (female, 4-6 weeks old) and allowed one-two week for tumor growth. […] Over the period of 10 weeks, tumorigenesis in both groups was measured using a caliper on a weekly basis. The change in tumor size was expressed as in fold change and plotted over time.

`CNC(=O)c1cc(Oc2ccc(NC(=O)Nc3ccc(Cl)c(C(F)(F)F)c3)cc2)ccn1` [sorafenib] was tested, and the “number of complete pentagon or hexagon tube” value (HUVEC cells) was “significant decreased”.
In the case of `COc1cc2ncnc(Nc3ccc(F)c(Cl)c3)c2cc1OCCCN1CCOCC1` [Gefitinib], the “Tumor reduction (%)” value [1] is reported as 8.8%.
